# Literature values, collected in patent publication US7067586B2, “Methods of making ABA-type block copolymers having a random block of hydrophobic and hydrophilic monomers” (Symyx Technologies, Inc., priority 2000, dated 2006).
# Conditions: octanol-water partition coefficient of the monomer; approximate values from web-site estimation program or Hansch et al.
row,SMILES,log P
1,C=C(C)C(=O)OC(C)(C)C [t-butyl methacrylate],~2.54
2,C=C(C)C(=O)OCCO [2-hydroxyethylmethacrylate],about 0.47
3,C=C(C)C(=O)OCCN(C)C [dimethyl aminoethyl methacrylate],~0.97
4,C=C(C)C(=O)O [methacrylic acid],~0.93
5,C=CC(=O)NC(C)(C)C [N-t-butyl acrylamide],~1.02
6,O=C(O)/C=C\C(=O)O [maleic acid],~−0.48
7,C=C(C)C(=O)OC [methyl methacrylate],~1.38
8,C=CC(=O)OCCO [2-hydroxyethylacrylate],about −0.21
9,C=C(C)C(=O)OCCCC [n-butyl methacrylate],~2.36
10,C=C(C)C(=O)OCC(C)C [isobutyl methacrylate],~2.66
11,C=C(CC(=O)O)C(=O)O [itaconic acid],~−0.34
12,C=CC(=O)OC(C)(C)C [tert-butylacrylate],about 2.09
13,C=Cc1ccccc1 [styrene],about 2.95
14,C=CCO [allyl alcohol],~0.17
15,C=C(C)C(N)=O [methacrylamide],~−0.26
16,C=CC(=O)OCCOC [2-methoxyethylacrylate],about 0.45

# Same assay, conditions: octanol-water partition coefficient of the monomer; approximate values from web-site estimation program or Hansch et al.; listed as t-butyl acrylate
row,SMILES,log P
1,C=CC(=O)OC(C)(C)C [tert-butylacrylate],~2.09
